From DBAASP
Values after ≈ are worked out from the molar mass of the structure shown.

Key:
Test in all cases: ≥ marks a high value that may be exact or a test limit, other limits are often not marked, values filed in µg/mL are converted to µM
[1] = tested on: Staphylococcus aureus CCARM 3001
[2] = tested on: Klebsiella oxytoca CIP 79.32
[3] = tested on: Staphylococcus epidermidis ATCC 12228
Escherichia coli SBS 363 = tested on: Escherichia coli SBS 363
[4] = tested on: Klebsiella pneumoniae ATCC 13883
Micrococcus luteus A270 = tested on: Micrococcus luteus A270
[5] = tested on: Pseudomonas aeruginosa PAO1
[6] = tested on: Pseudomonas aeruginosa CCARM 2095
[7] = tested on: Escherichia coli ATCC 11775
Bacillus thuringiensis = tested on: Bacillus thuringiensis
[8] = tested on: Klebsiella aerogenes ATCC 13048
[9] = tested on: Staphylococcus aureus ATCC 25923
[10] = tested on: Bacillus subtilis CCT 2471
[11] = tested on: Pseudomonas aeruginosa NCIB 10421
[12] = tested on: Candida tropicalis IOC 4560
[13] = tested on: Escherichia coli CCT 1371
Proteus mirabilis = tested on: Proteus mirabilis
[14] = tested on: Pseudomonas aeruginosa ATCC BAA-427
[15] = tested on: Escherichia coli ATCC 10536
[16] = tested on: Staphylococcus aureus CCARM 3543
[17] = tested on: Pseudomonas aeruginosa ATCC 27853
Escherichia coli BL21 = tested on: Escherichia coli BL21
[18] = tested on: Pseudomonas aeruginosa KCTC 1637
[19] = tested on: Staphylococcus aureus KCTC 1621
[20] = tested on: Salmonella typhimurium KCTC 1926
[21] = tested on: Escherichia coli KCTC 1682
[22] = tested on: Staphylococcus saprophyticus
[23] = tested on: Candida albicans ATCC 18804
[24] = tested on: Bacillus megaterium ATCC 10778
Candida albicans MDM8 = tested on: Candida albicans MDM8
Escherichia coli AIG 222 = tested on: Escherichia coli AIG 222
[25] = tested on: Pseudomonas aeruginosa ATCC 15442
[26] = tested on: Staphylococcus epidermidis KCTC 1917
[27] = tested on: Staphylococcus aureus ATCC 6538
[28] = tested on: Acinetobacter baumannii ATCC 19606
[29] = tested on: Bacillus cereus ATCC 11778
[30] = tested on: Staphylococcus aureus ATCC 25293
[31] = tested on: Staphylococcus aureus ATCC 12600
Escherichia coli AIG 221 = tested on: Escherichia coli AIG 221
[32] = tested on: Salmonella enterica subsp. enterica serovar Typhimurium ATCC 14028
[33] = tested on: Serratia marcescens ATCC 4112
[34] = tested on: Yersinia pseudotuberculosis YPIII
[35] = tested on: Candida albicans ATCC 10231
[36] = tested on: Pseudomonas syringae pv. tabaci
Micrococcus luteus = tested on: Micrococcus luteus
[37] = tested on: Phytophthora nicotianae PG344
Candida tropicalis = tested on: Candida tropicalis
Escherichia coli D21 = tested on: Escherichia coli D21
Bacillus megaterium Bm11 = tested on: Bacillus megaterium Bm11
Mammaliicoccus lentus = tested on: Mammaliicoccus lentus

CC[C@H](C)[C@H](N)C(=O)N[C@@H](CC(C)C)C(=O)NCC(=O)N[C@@H](CCCCN)C(=O)N[C@H](C(=O)N[C@@H](Cc1c[nH]c2ccccc12)C(=O)N[C@@H](CCC(=O)O)C(=O)NCC(=O)N[C@H](C(=O)N[C@@H](CCCCN)C(=O)N[C@@H](CO)C(=O)N[C@@H](CC(C)C)C(=O)N[C@@H](Cc1ccccc1)C(N)=O)[C@@H](C)CC)[C@@H](C)CC [ILGKIWEGIKSLF]
MIC [1]: 1 µM (≈ 1.5 µg/mL) | MIC [2]: 16 µM (≈ 24 µg/mL) | MIC [3]: 8 µM (≈ 12 µg/mL) | MIC (Escherichia coli SBS 363): 1.56 µM (≈ 2.34 µg/mL) | MIC [4]: ≥ 64 µM | MIC (Micrococcus luteus A270): 0.78 µM (≈ 1.17 µg/mL) | MIC [5]: > 128 µM | MIC [6]: 1 µM (≈ 1.5 µg/mL) | MIC [7]: ≥ 32 µM | MIC (Bacillus thuringiensis): 16.6 µM (≈ 25 µg/mL) | MIC [8]: ≥ 66.5 µM | MIC [9]: 2 µM (≈ 3.01 µg/mL) | MIC [10]: 6.65 µM (≈ 9.99 µg/mL) | MIC [11]: ≥ 50 µM | MIC [12]: 1.56 µM (≈ 2.34 µg/mL) | MIC [13]: 3.32 µM (≈ 5 µg/mL) | MIC (Proteus mirabilis): ≥ 133 µM | MIC [14]: 4 µM (≈ 6.01 µg/mL) | MIC [15]: 3 µM (≈ 4.51 µg/mL) | MIC [16]: 1 µM (≈ 1.5 µg/mL) | MIC [17]: 66.5 µM (≈ 99.9 µg/mL) | MIC (Escherichia coli BL21): 4 µM (≈ 6.01 µg/mL) | MIC [18]: 2 µM (≈ 3.01 µg/mL) | MIC [19]: 2 µM (≈ 3.01 µg/mL) | MIC [20]: 2 µM (≈ 3.01 µg/mL) | MIC [21]: 4 µM (≈ 6.01 µg/mL) | MIC [22]: 0.665 µM (≈ 0.999 µg/mL) | MIC [23]: 12.5 µM (≈ 18.8 µg/mL) | MIC [24]: 0.78 µM (≈ 1.17 µg/mL) | MIC (Candida albicans MDM8): 3.13 µM (≈ 4.7 µg/mL) | MIC (Escherichia coli AIG 222): 16 µM (≈ 24 µg/mL) | MIC [25]: ≥ 133 µM | MIC [26]: 2 µM (≈ 3.01 µg/mL) | MIC [27]: 3.32 µM (≈ 5 µg/mL) | MIC [28]: 8 µM (≈ 12 µg/mL) | MIC [29]: ≥ 66.5 µM | MIC [30]: 0.665 µM (≈ 0.999 µg/mL) | MIC [31]: 8 µM (≈ 12 µg/mL) | MIC (Escherichia coli AIG 221): ≥ 32 µM | MIC [32]: 66.5 µM (≈ 99.9 µg/mL) | MIC [33]: 0.36 µM (≈ 0.541 µg/mL)

CC(C)C[C@H](NC(=O)[C@H](C)NC(=O)CN)C(=O)N[C@@H](CCCN=C(N)N)C(=O)NCC(=O)N[C@H]1CSSC[C@@H](C(=O)N[C@@H](CCCCN)C(N)=O)NC(=O)[C@@H]2CCCN2C(=O)[C@H](CCCCN)NC(=O)[C@@H]2CCCN2C(=O)[C@@H]2CCCN2C(=O)[C@H](Cc2ccc(O)cc2)NC(=O)[C@H](CO)NC(=O)[C@H](CCCCN)NC(=O)[C@H]([C@@H](C)O)NC(=O)[C@H](Cc2c[nH]c3ccccc23)NC1=O [GALRGCWTKSYPPKPCK]
MIC [34]: 5 µM (≈ 9.45 µg/mL) | MIC [35]: 22 µM (≈ 41.6 µg/mL) | MIC [36]: 16 µM (≈ 30.2 µg/mL) | MIC (Micrococcus luteus): 8 µM (≈ 15.1 µg/mL) | MIC [37]: 16 µM (≈ 30.2 µg/mL) | MIC (Candida tropicalis): 14 µM (≈ 26.5 µg/mL) | MIC (Escherichia coli D21): 30 µM (≈ 56.7 µg/mL) | MIC (Bacillus megaterium Bm11): 3 µM (≈ 5.67 µg/mL) | MIC (Mammaliicoccus lentus): 10 µM (≈ 18.9 µg/mL)
